From US20160297830A1, “NOVEL COMPOUNDS USEFUL FOR THE TREATMENT OF BACTERIAL INFECTIOUS DISEASES” (GALAPAGOS NV, priority 2013, published 2016)
In brackets after ≈: the same amount, converted by molar mass. Read-outs that look alike come from different tables or passages of the source.

Assays:
[1] = system: E. coli Ec113 efflux pump KO; assay: microbe, parasite or virus in culture; format: cell-based; conditions: Escherichia coli, read-out: MIC Ec113 efflux pump KO
[2] = system: S. aureus Sa2 clinical strain NCIMB 41953, MRSA; assay: microbe, parasite or virus in culture; format: cell-based; conditions: Staphylococcus aureus, read-out: MIC Sa2
[3] = system: H. influenza Hi106 ATCC 51907; assay: organism not typed; format: cell-based; conditions: read-out: MIC Hi106
[4] = system: Methicillin Resistant S. aureus (MRSA); assay: Neutropenic mouse thigh infection model; conditions: Thigh Sa
S. aureus Sa4 NCTC 6571 = assay: Antibacterial activity assay (MIC), S. aureus Sa4; format: cell-based; conditions: Staphylococcus aureus
[5] = system: E. coli Ec50 efflux pump KO; assay: microbe, parasite or virus in culture; format: cell-based; conditions: Escherichia coli, read-out: MIC Ec50 efflux pump KO
[6] = system: H. influenza Hi47 clinical strain, Ampicillin Resistant; assay: organism not typed; format: cell-based; conditions: read-out: MIC Hi47
S. aureus Sa1 ATCC 13709 = assay: microbe, parasite or virus in culture; format: cell-based; conditions: Staphylococcus aureus
DNA III Polymerase E = DNA III Polymerase E (Escherichia coli, UniProt P10443); assay: In vitro activity against DNA III Polymerase E, E. coli; format: biochemical
How it was run: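 Recombinant enzyme (0.47 μg/mL diluted stock) in 20 mM Tris pH7.5, 8 mM DTT, 10 mM MgOAc, 0.05% CHAPS met compound series from 100 μM top, 1/5 steps. Activated calf thymus DNA, dNTPs and [α-33P]-dTTP substrate were added, and incubation ran 120 min at 30° C. IC50 came from filter-captured incorporated radioactivity versus controls.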

[7] = system: H. influenza Hi10 clinical strain; assay: organism not typed; format: cell-based; conditions: read-out: MIC Hi10
[8] = system: H. influenza Hi3 ATCC 31517; assay: organism not typed; format: cell-based; conditions: read-out: MIC Hi3
[9] = system: S. aureus Sa26 ATCC 25923; assay: Antibacterial activity assay (MIC), S. aureus Sa26; format: cell-based; conditions: Staphylococcus aureus
[10] = system: Methicillin Resistant S. aureus Sa2 (MRSA); assay: animal or person; format: in vivo
E. coli Ec1 ATCC 25922 = assay: Antibacterial activity assay (MIC), E. coli Ec1; format: cell-based; conditions: Escherichia coli
[11] = target: DNA Polymerase IIIα (DnaE) from Staphylococcus aureus (Staphylococcus aureus, UniProt Q6GG04); assay: biochemical
[12] = system: Methicillin Resistant S. aureus Sa2 (MRSA); format: in vivo; conditions: Groin Sa, sample time 31 h post infection
[13] = Study 9, 50 mg/kg PO BID, sample time 24 h PI
[14] = NCTC6571, S. aureus Sa4 NCTC 6571, sensitive strain, read-out: MIC Sa4
[15] = ATCC13709, S. aureus Sa1 ATCC 13709, sensitive strain, Mueller-Hinton Broth, 37° C., read-out: MIC Sa1
[16] = ATCC25923, read-out: MIC Sa26 + 10% SH, S. aureus Sa26 + 10% SH
[17] = ATCC25923, read-out: MIC Sa26 + 50% SH, S. aureus Sa26 + 50% SH
[18] = ATCC25923, S. aureus Sa26 ATCC 25923, sensitive strain, Mueller-Hinton Broth, 37° C., read-out: MIC Sa26
[19] = Staphylococcus aureus, MRSA, in Mus musculus, po, 24 h, read-out: Log reduction vs. untreated, Study 3, 50 mg/kg PO BID, sample 24 h post infection, lung
[20] = Study 3, 50 mg/kg PO BID, sample 24 h post infection, lung
[21] = ATCC25922, E. coli Ec1 ATCC 25922, sensitive strain, read-out: MIC Ec1
[22] = Study 3, 50 mg/kg SC BID, sample time 7 h PI
[23] = Study 5, 5 mg/kg IP BID, sample time 24 h PI
[24] = Study 5, 15 mg/kg IP BID, sample time 24 h PI
[25] = Study 5, 50 mg/kg IP BID, sample time 24 h PI
[26] = Study 5, 50 mg/kg SC BID, sample time 24 h PI
[27] = Study 5, 200 mg/kg PO BID, sample time 24 h PI
[28] = Study 6, 50 mg/kg PO BID, sample time 24 h PI
[29] = Study 6, 100 mg/kg PO BID, sample time 24 h PI
[30] = Study 1, 50 mg/kg SC BID, sample time 7 h PI
[31] = Study 2, 50 mg/kg SC BID, sample time 7 h PI
[32] = Study 4, 15 mg/kg SC BID, sample time 24 h PI
[33] = Study 8, 50 mg/kg SC QD, sample time 48 h PI

DNA III Polymerase E, sequence (P10443 whole entry): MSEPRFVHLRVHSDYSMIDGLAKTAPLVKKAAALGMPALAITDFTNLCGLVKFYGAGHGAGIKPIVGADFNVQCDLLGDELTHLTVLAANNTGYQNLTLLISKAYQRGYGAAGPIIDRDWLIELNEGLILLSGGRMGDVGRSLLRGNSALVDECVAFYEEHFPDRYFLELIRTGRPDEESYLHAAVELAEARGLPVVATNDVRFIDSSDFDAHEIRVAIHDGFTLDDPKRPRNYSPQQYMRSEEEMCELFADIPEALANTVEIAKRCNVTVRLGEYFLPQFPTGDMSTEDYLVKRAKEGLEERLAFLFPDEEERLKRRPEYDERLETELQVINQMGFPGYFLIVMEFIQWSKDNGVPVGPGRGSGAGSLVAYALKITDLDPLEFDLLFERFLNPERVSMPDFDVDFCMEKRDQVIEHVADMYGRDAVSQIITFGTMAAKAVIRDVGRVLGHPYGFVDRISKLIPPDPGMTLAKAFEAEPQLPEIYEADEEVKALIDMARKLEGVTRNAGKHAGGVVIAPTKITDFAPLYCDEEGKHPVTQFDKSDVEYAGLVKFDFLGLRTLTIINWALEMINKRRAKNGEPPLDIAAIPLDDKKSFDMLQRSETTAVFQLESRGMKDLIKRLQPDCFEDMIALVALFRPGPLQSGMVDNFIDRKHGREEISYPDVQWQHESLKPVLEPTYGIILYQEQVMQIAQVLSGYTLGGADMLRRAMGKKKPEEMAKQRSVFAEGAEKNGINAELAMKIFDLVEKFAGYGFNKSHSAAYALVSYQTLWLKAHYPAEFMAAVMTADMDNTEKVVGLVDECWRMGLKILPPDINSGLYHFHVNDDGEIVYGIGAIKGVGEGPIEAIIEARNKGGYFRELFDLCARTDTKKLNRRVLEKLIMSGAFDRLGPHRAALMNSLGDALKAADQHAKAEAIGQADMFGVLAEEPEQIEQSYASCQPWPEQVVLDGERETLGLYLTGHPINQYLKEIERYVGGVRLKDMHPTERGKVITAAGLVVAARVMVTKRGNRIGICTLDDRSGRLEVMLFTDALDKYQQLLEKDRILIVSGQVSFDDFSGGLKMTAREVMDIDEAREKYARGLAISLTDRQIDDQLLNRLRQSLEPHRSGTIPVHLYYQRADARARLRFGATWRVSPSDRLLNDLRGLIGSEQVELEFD
DNA Polymerase IIIα (DnaE) from Staphylococcus aureus, sequence (Q6GG04 1-1022): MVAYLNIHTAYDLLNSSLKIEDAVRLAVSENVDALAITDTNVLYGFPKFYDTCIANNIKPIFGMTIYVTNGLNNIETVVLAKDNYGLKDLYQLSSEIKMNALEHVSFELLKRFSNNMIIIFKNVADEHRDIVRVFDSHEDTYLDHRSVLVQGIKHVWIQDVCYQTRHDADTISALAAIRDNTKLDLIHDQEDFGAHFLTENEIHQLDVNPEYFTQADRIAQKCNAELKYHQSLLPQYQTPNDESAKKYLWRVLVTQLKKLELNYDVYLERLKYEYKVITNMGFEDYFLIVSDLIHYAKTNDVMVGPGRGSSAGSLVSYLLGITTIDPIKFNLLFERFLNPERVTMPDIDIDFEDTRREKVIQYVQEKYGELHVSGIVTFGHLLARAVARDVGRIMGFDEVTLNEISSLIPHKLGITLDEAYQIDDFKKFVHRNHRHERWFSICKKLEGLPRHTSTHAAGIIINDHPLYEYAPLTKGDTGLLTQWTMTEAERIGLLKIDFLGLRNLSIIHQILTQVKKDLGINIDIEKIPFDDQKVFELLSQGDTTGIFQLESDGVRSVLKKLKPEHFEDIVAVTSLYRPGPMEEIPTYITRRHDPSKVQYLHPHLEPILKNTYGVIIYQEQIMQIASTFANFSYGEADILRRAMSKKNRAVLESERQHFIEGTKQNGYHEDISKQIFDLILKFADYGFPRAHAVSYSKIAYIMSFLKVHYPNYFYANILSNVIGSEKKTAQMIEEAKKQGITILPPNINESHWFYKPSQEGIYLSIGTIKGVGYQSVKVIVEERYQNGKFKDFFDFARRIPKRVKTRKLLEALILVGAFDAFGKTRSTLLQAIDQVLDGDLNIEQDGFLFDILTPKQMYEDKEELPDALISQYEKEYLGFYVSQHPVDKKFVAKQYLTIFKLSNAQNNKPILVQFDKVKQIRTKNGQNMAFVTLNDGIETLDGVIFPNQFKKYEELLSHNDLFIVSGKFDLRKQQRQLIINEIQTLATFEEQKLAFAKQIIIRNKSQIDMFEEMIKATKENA

COC[C@@H]1[C@@H](O)[C@@H]2[C@H]3C=C[C@@H]4[C@@H](COC)C(=O)O[C@H]([C@H](O)COC)[C@H](C)/C=C(\C)[C@@]24O[C@H]3[C@@H]1OC(=O)c1cc(F)c[nH]1 [Compound 19, 8-O-4-Fluoro-1H-pyrrole-2′-carbonylbranimycin]
MIC [1]: 0.5 µg/mL (≈ 0.842 µM) | MIC [2]: 0.5 µg/mL (≈ 0.842 µM) | MIC [3]: > 64 µg/mL | Active [4, 13]: Y | Log reduction vs. untreated [4, 13]: −3.28 | MIC (S. aureus Sa4 NCTC 6571; [14]): 0.25 µg/mL (≈ 0.421 µM) | MIC [5]: 64 µg/mL (≈ 108 µM) | MIC [6]: > 64 µg/mL | MIC (S. aureus Sa1 ATCC 13709; [15]): 0.5 µg/mL (≈ 0.842 µM) | IC50 (DNA III Polymerase E): 1680 to 16800 nM | MIC [7]: > 64 µg/mL | MIC [8]: > 64 µg/mL | MIC [9, 16]: 0.5 µg/mL | MIC [9, 17]: 1 µg/mL | MIC [9, 18]: 0.5 µg/mL (≈ 0.842 µM) | log reduction at 50 mg/kg [10, 19]: 3.56 | log reduction at 25 mg/kg ([10]; Staphylococcus aureus, MRSA, in Mus musculus, po, 72 h, read-out: Log reduction vs. untreated, Study 6, 25 mg/kg PO QD, sample 72 h post infection, lung): 3.65 | Active [10, 20]: Y | Active ([10]; Study 6, 25 mg/kg PO QD, sample 72 h post infection, lung): Y | MIC (E. coli Ec1 ATCC 25922; [21]): > 64 µg/mL | IC50 [11]: 1.68 to 1680 nM

COC[C@@H]1[C@@H](O)[C@@H]2[C@H]3C=C[C@@H]4[C@@H](COC)C(=O)O[C@H]([C@H](O)COC)[C@H](C)/C=C(\C)[C@@]24O[C@H]3[C@@H]1OC(=O)c1cc(Cl)c[nH]1 [Compound 28, 8-O-4-Chloro-1H-pyrrole-2′-carbonylbranimycin]
MIC [1]: 1 µg/mL (≈ 1.64 µM) | MIC [2]: 4 µg/mL (≈ 6.56 µM) | MIC [3]: 64 µg/mL (≈ 105 µM) | MIC (S. aureus Sa4 NCTC 6571; [14]): 4 µg/mL (≈ 6.56 µM) | MIC [5]: 64 µg/mL (≈ 105 µM) | MIC [6]: 64 µg/mL (≈ 105 µM) | MIC (S. aureus Sa1 ATCC 13709; [15]): 2 µg/mL (≈ 3.28 µM) | IC50 (DNA III Polymerase E): 1640 to 16400 nM | MIC [7]: 64 µg/mL (≈ 105 µM) | MIC [8]: > 64 µg/mL | MIC [9, 16]: 4 µg/mL | MIC [9, 17]: 16 µg/mL | MIC [9, 18]: 4 µg/mL (≈ 6.56 µM) | log reduction at 50 mg/kg [10, 19]: 1.64 | Active [10, 20]: N | MIC (E. coli Ec1 ATCC 25922; [21]): > 64 µg/mL | IC50 [11]: 1.64 to 1640 nM

C[C@H]1COc2c(N3CCN(C)CC3)c(F)cc3c(=O)c(C(=O)O)cn1c23 [Levofloxacin, reference compound]
Active ([12]; Study 2, 50 mg/kg PO BID): N | Log reduction vs. untreated ([12]; Study 2, 50 mg/kg PO BID): −1.00 | log reduction at 50 mg/kg ([10]; Staphylococcus aureus, MRSA, in Mus musculus, po, 24 h, read-out: Log reduction vs. untreated, Study 1, 50 mg/kg PO BID, sample 24 h post infection, lung): 0.32 | log reduction at 50 mg/kg ([10]; Staphylococcus aureus, MRSA, in Mus musculus, po, 24 h, read-out: Log reduction vs. untreated, Study 2, 50 mg/kg PO BID, sample 24 h post infection, lung): 0.55 | log reduction at 50 mg/kg [10, 19]: -1.17 | Active ([10]; Study 1, 50 mg/kg PO BID, sample 24 h post infection, lung): N | Active ([10]; Study 2, 50 mg/kg PO BID, sample 24 h post infection, lung): N | Active [10, 20]: N

CO[C@H]1C[C@H]2C=C[C@H]3[C@H]4O[C@]2(/C(C)=C/[C@@H](C)[C@@H]([C@@H](C)O)OC1=O)[C@@H]3[C@H](O)[C@@H](C)[C@H]4OC(=O)c1ccc[nH]1 [Nargenicin A1, reference compound]
MIC [1]: ≤ 0.06 µg/mL | MIC [2]: 0.125 µg/mL (≈ 0.242 µM) | MIC [3]: 32 µg/mL (≈ 62.1 µM) | Active [4, 22]: Y | Log reduction vs. untreated [4, 22]: −4.52 | Active [4, 23]: N | Log reduction vs. untreated [4, 23]: 0.28 | Active [4, 24]: N | Log reduction vs. untreated [4, 24]: −0.55 | Active [4, 25]: Y | Log reduction vs. untreated [4, 25]: −5.40 | Active [4, 26]: Y | Log reduction vs. untreated [4, 26]: −3.28 | Active [4, 27]: Y | Log reduction vs. untreated [4, 27]: −4.47 | Active [4, 28]: Y | Log reduction vs. untreated [4, 28]: −2.02 | Active [4, 29]: Y | Log reduction vs. untreated [4, 29]: −4.06 | Active ([12]; Study 1, 50 mg/kg IP BID): Y | Log reduction vs. untreated ([12]; Study 1, 50 mg/kg IP BID): −3.13 | Active ([12]; Study 1, 50 mg/kg PO BID): N | Log reduction vs. untreated ([12]; Study 1, 50 mg/kg PO BID): −1.11 | MIC (S. aureus Sa4 NCTC 6571; NCTC6571, read-out: MIC Sa4): ≤ 0.06 µg/mL | MIC [5]: 2 µg/mL (≈ 3.88 µM) | MIC [6]: 64 µg/mL (≈ 124 µM) | MIC (S. aureus Sa1 ATCC 13709; ATCC13709, read-out: MIC Sa1): 0.125 µg/mL (≈ 0.242 µM) | IC50 (DNA III Polymerase E; DNA polymerase III, E. coli, read-out: IC50 semiquantitative scoring, E. coli): 1.94 to 1940 nM | MIC [7]: 32 µg/mL (≈ 62.1 µM) | MIC [8]: 64 µg/mL (≈ 124 µM) | MIC ([9]; ATCC25923, read-out: MIC Sa26): 0.25 µg/mL (≈ 0.485 µM) | MIC ([9]; ATCC25923, read-out: MIC Sa26 + 10% SH): 0.5 µg/mL | MIC ([9]; ATCC25923, read-out: MIC Sa26 + 50% SH): 0.5 µg/mL | log reduction at 12.5 mg/kg ([10]; Staphylococcus aureus, MRSA, in Mus musculus, po, 24 h, read-out: Log reduction vs. untreated, Study 4, 12.5 mg/kg PO BID, sample 24 h post infection, lung): 0.39 | log reduction at 25 mg/kg ([10]; Staphylococcus aureus, MRSA, in Mus musculus, po, 24 h, read-out: Log reduction vs. untreated, Study 4, 25 mg/kg PO BID, sample 24 h post infection, lung): 2.17 | log reduction at 50 mg/kg ([10]; Staphylococcus aureus, MRSA, in Mus musculus, po, 24 h, read-out: Log reduction vs. untreated, Study 4, 50 mg/kg PO BID, sample 24 h post infection, lung): 2.57 | Active ([10]; Study 4, 12.5 mg/kg PO BID, sample 24 h post infection, lung): N | Active ([10]; Study 4, 25 mg/kg PO BID, sample 24 h post infection, lung): Y | Active ([10]; Study 4, 50 mg/kg PO BID, sample 24 h post infection, lung): Y | MIC (E. coli Ec1 ATCC 25922; ATCC25922, read-out: MIC Ec1): > 64 µg/mL | IC50 [11]: 1.94 to 1940 nM

CN[C@H](CC(C)C)C(=O)N[C@H]1C(=O)N[C@@H](CC(N)=O)C(=O)N[C@H]2C(=O)N[C@H]3C(=O)N[C@H](C(=O)N[C@H](C(=O)O)c4cc(O)cc(O)c4-c4cc3ccc4O)[C@H](O)c3ccc(c(Cl)c3)Oc3cc2cc(c3O[C@@H]2O[C@H](CO)[C@@H](O)[C@H](O)[C@H]2O[C@H]2C[C@](C)(N)[C@H](O)[C@H](C)O2)Oc2ccc(cc2Cl)[C@H]1O [Vancomycin]
Active [4, 30]: Y | Log reduction vs. untreated [4, 30]: −4.01 | Active [4, 31]: Y | Log reduction vs. untreated [4, 31]: −2.57 | Active [4, 22]: Y | Log reduction vs. untreated [4, 22]: −1.52 | Active [4, 32]: Y | Log reduction vs. untreated [4, 32]: −3.96 | Active [4, 26]: Y | Log reduction vs. untreated [4, 26]: −4.27 | Active [4, 33]: Y | Log reduction vs. untreated [4, 33]: −3.2 | Active ([12]; Study 1, 50 mg/kg SC BID): Y | Log reduction vs. untreated ([12]; Study 1, 50 mg/kg SC BID): −3.59 | log reduction at 50 mg/kg ([10]; Staphylococcus aureus, MRSA, in Mus musculus, sc, 24 h, read-out: Log reduction vs. untreated): 2 | Active ([10]; Study 1, 50 mg/kg SC BID, sample 24 h post infection, lung): Y
